What was measured:
BALB/c and C57BL/6 mice = assay: ELISA of sera of mice immunized with signal peptides (antibody response); format: in vivo; settings: for antibody response against VXL-301 (ELISA): VXL-301 coated plate; for antibody responses of immunized mice (ELISA, overall): summary of BALB/c and C57BL/6 ELISA results; for antibody response against VXL-303 (ELISA): VXL-303 coated plate
Experimental: (§1) BALB/c and C57BL/6 mice were immunized by subcutaneous (SC) injections with 100 μg of individual SPs or a SP mixture and with intraperitoneal injections of 100 ng of mouse granulocyte macrophage colony stimulating factor (mGM-CSF) three times at 7-day intervals.
To monitor if antibody response was developed against the SPs an enzyme-linked immunosorbent assay (ELISA) was performed with sera obtained on days 10 and 20 post the last immunization when VXL-301, or VXL-302, or VXL-303 or VXL-201c (negative control) were coated on the ELISA plate.

[1] = test system: splenocytes of immunized C57BL/6 mice; assay: ELISpot of interleukin 2 after SP stimulation of splenocytes; format: cell-based; settings: SP stimulation of splenocytes of immunized C57BL/6 mice
Experimental: as §1

[2] = test system: splenocytes of immunized BALB/c mice; assay: ELISpot of interferon gamma after SP stimulation of splenocytes; format: cell-based
Experimental: as §1

[3] = test system: Peripheral blood mononuclear cells (PBMCs) from healthy donors; assay: Ex vivo immunogenicity: proliferation of PBMCs stimulated by SP-loaded autologous dendritic cells; format: cell-based; settings: healthy donor PBMCs; for proliferation in CD4+ and CD8+ T cells / proliferation versus positive control SPs: SP-loaded autologous DCs
Experimental: Immunogenicity is assessed by quantifying proliferation of T cells in response to exposure to peptides. To this end, healthy donor peripheral blood mononuclear cells (PBMCs) are marked by a fluorescent dye and exposed to either the naked peptide or to autologous antigen presenting cells (APCs) pre-loaded with the SP. Phytohaemagglutinin (PHA), or tetanus toxoid, (TT), or previously tested SPs, serve as a positive control for maximum stimulation. Unloaded APCs, or medium, or human Fab fragments serve as negative controls. Proliferation is calculated by the increase of CD3+ T cells and the fraction of cells with different number of cell divisions assessed by flow cytometry.
Peripheral blood mononuclear cells (PBMCs) from healthy donors were stimulated by SP-loaded autologous dendritic cells (DCs).

[4] = BALB/c mice, sera day 10 post last immunization, 100 μg SC + mGM-CSF, three times
[5] = C57BL/6 mice, sera day 20 post last immunization

## MFVFLVLLPLVSSQC [VXL-301]
BALB/c and C57BL/6 mice; [4]
  antibody response against VXL-301 (ELISA): greatest antibody response
BALB/c and C57BL/6 mice; [5]
  antibody response against VXL-301 (ELISA): highest antibody responses
BALB/c and C57BL/6 mice
  antibody responses of immunized mice (ELISA, overall): demonstrated antibody responses
[1]
  secretion of interleukin 2 (ELISpot): induced secretion of interleukin 2 primarily in the VXL-301- and the SP mixture-immunized groups
[2]
  secretion of interferon gamma (ELISpot): induced secretion of interferon gamma primarily in the VXL-301- and the SP mixture-immunized groups
[3]
  proliferation versus unloaded DCs (non-specific proliferation): proliferation that was greater than unloaded DCs
  proliferation in CD4+ and CD8+ T cells: evident in both CD4+ cytotoxic T cells and CD8+ helper T cells
  proliferation versus positive control SPs: comparable to the levels observed for positive control SPs

## MKFLVFLGIITTVAA [VXL-303]
BALB/c and C57BL/6 mice; [4]
  antibody response against VXL-303 (ELISA): greatest antibody response
BALB/c and C57BL/6 mice; [5]
  antibody response against VXL-303 (ELISA): highest antibody responses
BALB/c and C57BL/6 mice
  antibody responses of immunized mice (ELISA, overall): demonstrated antibody responses
[1]
  secretion of interleukin 2 (ELISpot): induced secretion of interleukin 2 primarily in the VXL-303- and the SP mixture-immunized groups
[2]
  secretion of interferon gamma (ELISpot): induced secretion of interferon gamma primarily in the VXL-303- and the SP mixture-immunized groups
[3]
  proliferation versus unloaded DCs (non-specific proliferation): proliferation that was greater than unloaded DCs
  proliferation in CD4+ and CD8+ T cells: evident in both CD4+ cytotoxic T cells and CD8+ helper T cells
  proliferation versus positive control SPs: comparable to the levels observed for positive control SPs

## MKIILFLALITLATC [VXL-302, signal peptide of SARS-CoV-2 ORF7a]
[1]
  secretion of interleukin 2 (ELISpot): induced secretion of interleukin 2 primarily in the VXL-302-immunized group
[2]
  secretion of interferon gamma (ELISpot): induced secretion of interferon gamma primarily in the VXL-302 immunized group
[3]
  proliferation versus unloaded DCs (non-specific proliferation): proliferation that was greater than unloaded DCs
  proliferation in CD4+ and CD8+ T cells: evident in both CD4+ cytotoxic T cells and CD8+ helper T cells
  proliferation versus positive control SPs: comparable to the levels observed for positive control SPs

Reference: patent publication US20230119806A1, “ANTIGEN SPECIFIC EPITOPE BASED ANTI-INFECTIVE VACCINES” (VAXIL BIOTHERAPEUTICS LTD., priority 2020, published 2023)
